Tests used:
[1] = system: Hsp27; conditions: preclinical studies, cited from earlier work
[2] = system: hsp27; conditions: Tanaka et al., Int J Gynecol Cancer 2004; cited from earlier work
[3] = system: PC-3 cells; test: Combination treatment with siHsp27 and LY-294002 in PC-3 cells; format: cell-based, human
Experimental: LY-294002 (2-(4-morpholinyl)-8-phenyl-4H-1-benzopyran-4-one) is a selective phosphatidylinositol 3-kinase (PI3K) inhibitor. Combination treatment with siHsp27 and LY-294002 treatment was assessed in PC-3 cells.

[4] = system: Akt; test: Western blot after siAkt or GSK690693C treatment in LNCaP cells; format: cell-based, human
Experimental: Twenty-four hours after culturing in 10 cm dishes at 7×10^5 cells per dish, Hsp27 siRNA (siHsp27) or scrambled siRNA (Scr) duplexes were transfected into cells. Briefly, the RNA duplex was diluted in Opti-MEN® serum-free medium and Oligofectamin (Invitrogen-Life Technologies). After 20 min, cells were transfected at 37? for 4-6 h and then were placed in standard medium. Forty-eight hours after transfection, cells were harvested and were analyzed in each experiment. To knockdown Akt, Akt1 siRNA (siAkt) duplexes (Cell signaling) were used. Twenty-four hours after transfection for 24 h, cells were harvested and then were analyzed as well. An siRNA duplex corresponding to the human Hsp27 site (sequence of one strand 5′-[…]-3′, SEQ ID NO: 2; Dharmacon, Lafayette, Colo.) was used. […]
Proteins (20-40 μg/lane) extracted in RIPA buffer from cells, were electrophoresed in SDS-polyacrylamide gels (SDS/PAGE) and transferred to PDVF membranes (Milipore, Bedford, Mass.) by a wet transfer method. […] Bands were detected by using an enhanced chemiluminescence Western blotting analysis system (Amersham Life Science, Arlington Heights, Ill.).
LNCaPHsp27 and LNCaP with empty vector (LNCaPmock) cells were assessed 24 h after culture. Cell lysates were collected 24 hours after culture and bands were detected with the indicated antibodies by Western blot assay. […]

OGX-427: antisense oligonucleotide targeting hsp27, gggacgcggc gctcggtcat, SEQ ID No. 1, described in U.S. Pat. No. 7,101,991 (antisense GGGACGCGGCGCTCGGTCAT; listed as DNA, chemistry not given here; listed as Homo sapiens)
chemosensitization ([1]; combination with cytotoxic drugs): acts as a chemosensitizer in combination with several cytotoxic drugs including docetaxel | anti-tumor activity ([1]; single agent): has single agent anti-tumor activity | apoptosis in human cancer cell lines [1]: induces apoptosis in several human cancer cell lines | levels of Hsp27 [1]: significantly decreases levels of Hsp27

CC(=O)O[C@H]1C(=O)[C@@]2(C)[C@H]([C@H](OC(=O)c3ccccc3)[C@]3(O)C[C@H](OC(=O)[C@H](O)[C@@H](NC(=O)c4ccccc4)c4ccccc4)C(C)=C1C3(C)C)[C@]1(OC(C)=O)CO[C@@H]1C[C@@H]2O [Paclitaxel]
hsp27 expression [2]: inhibitor of hsp27 expression

O=c1cc(N2CCOCC2)oc2c(-c3ccccc3)cccc12 [LY-294002, 2-(4-morpholinyl)-8-phenyl-4H-1-benzopyran-4-one]
PTEN expression [3]: reduced PTEN expression | effect on growth inhibition by Hsp27 knockdown ([3]; combination with siHsp27): reduced the growth inhibitory effect by Hsp27 knockdown in dose-dependent manner

CCn1c(-c2nonc2N)nc2c(C#CC(C)(C)O)ncc(OC[C@H]3CCCNC3)c21 [GSK690693C]
phospho-Akt level (Western blot) [4]: up-regulation of phospho-Akt | phospho-GSK-3B and phospho-PEA15 levels (Western blot) [4]: dose-dependent decrease of phospho-GSK-3B and phospho-PEA15

Reference: patent publication US20090281166A1, “Treatment of Cancer by Inhibition of HSP27” (THE UNIVERSITY OF BRITISH COLUMBIA, priority 2008, published 2009)
